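1) Cells in 96-well plates. 2) Compound, 48 h, 5 concentrations. 3) Linear interpolation between surrounding doses. 4) Unreached endpoint = highest concentration. The concentration for 50% growth inhibition is given as GI50. At the TGI there is no net growth.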
Legend:
Assay in all cases: inhibition of tumour cell growth, NCI panel, 48 h
786-0 renal = tested on: 786-0 renal
A498 renal = tested on: A498 renal
A549 NSCLC = tested on: A549 NSCLC
ACHN renal = tested on: ACHN renal
BT-549 breast = tested on: BT-549 breast
CAKI-1 renal = tested on: CAKI-1 renal
CCRF-CEM leukemia = tested on: CCRF-CEM leukemia
COLO 205 colon = tested on: COLO 205 colon
DU-145 prostate = tested on: DU-145 prostate
EKVX NSCLC = tested on: EKVX NSCLC
HCC-2998 colon = tested on: HCC-2998 colon
HCT-116 colon = tested on: HCT-116 colon
HCT-15 colon = tested on: HCT-15 colon
HL-60(TB) leukemia = tested on: HL-60(TB) leukemia
HOP-62 NSCLC = tested on: HOP-62 NSCLC
HOP-92 NSCLC = tested on: HOP-92 NSCLC
HS 578T breast = tested on: HS 578T breast
HT29 colon = tested on: HT29 colon
IGROV1 ovarian = tested on: IGROV1 ovarian
K-562 leukemia = tested on: K-562 leukemia
KM12 colon = tested on: KM12 colon
LOX IMVI melanoma = tested on: LOX IMVI melanoma
M14 melanoma = tested on: M14 melanoma
MALME-3M melanoma = tested on: MALME-3M melanoma
MCF7 breast = tested on: MCF7 breast
MDA-MB-231 breast = tested on: MDA-MB-231 breast
MDA-MB-435 = tested on: MDA-MB-435
MDA-MB-468 breast = tested on: MDA-MB-468 breast
MOLT-4 leukemia = tested on: MOLT-4 leukemia
NCI-H226 lung = tested on: NCI-H226 lung
NCI-H23 lung = tested on: NCI-H23 lung
NCI-H460 lung = tested on: NCI-H460 lung
NCI-H522 lung = tested on: NCI-H522 lung
NCI/ADR-RES ovarian = tested on: NCI/ADR-RES ovarian
OVCAR-3 ovarian = tested on: OVCAR-3 ovarian
OVCAR-4 ovarian = tested on: OVCAR-4 ovarian
OVCAR-5 ovarian = tested on: OVCAR-5 ovarian
OVCAR-8 ovarian = tested on: OVCAR-8 ovarian
PC-3 prostate = tested on: PC-3 prostate
RPMI-8226 leukemia = tested on: RPMI-8226 leukemia
RXF 393 renal = tested on: RXF 393 renal
SF-268 CNS = tested on: SF-268 CNS
SF-295 CNS = tested on: SF-295 CNS
SF-539 CNS = tested on: SF-539 CNS
SK-MEL-2 melanoma = tested on: SK-MEL-2 melanoma
SK-MEL-28 melanoma = tested on: SK-MEL-28 melanoma
SK-MEL-5 melanoma = tested on: SK-MEL-5 melanoma
SK-OV-3 ovarian = tested on: SK-OV-3 ovarian
SN12C renal = tested on: SN12C renal
SNB-19 CNS = tested on: SNB-19 CNS
SNB-75 CNS = tested on: SNB-75 CNS
SR leukemia = tested on: SR leukemia
SW-620 colon = tested on: SW-620 colon
T-47D breast = tested on: T-47D breast
TK-10 renal = tested on: TK-10 renal
U251 CNS = tested on: U251 CNS
UACC-257 melanoma = tested on: UACC-257 melanoma
UACC-62 melanoma = tested on: UACC-62 melanoma
UO-31 renal = tested on: UO-31 renal

In the case of `COc1ccc2[nH]cc(/C=N/Nc3ccc(Br)cn3)c2c1`, the GI50 (786-0 renal) is reported as 12.6 µM, the TGI (786-0 renal) is reported as 40.1 µM and the GI50 (A498 renal) is reported as 20.5 µM. The TGI (A498 renal) was 61.7 µM, the GI50 (A549 NSCLC) was 8.12 µM and the TGI (A549 NSCLC) was > 100 µM. For the same compound, the GI50 (ACHN renal) was 7.76 µM, the TGI (ACHN renal) was > 100 µM and the GI50 (BT-549 breast) was 0.176 µM. The TGI (BT-549 breast) was > 100 µM, the GI50 (CAKI-1 renal) was 3.01 µM and the TGI (CAKI-1 renal) was > 100 µM. It also gave a GI50 (CCRF-CEM leukemia) of 0.466 µM, a TGI (CCRF-CEM leukemia) of 41 µM and a GI50 (COLO 205 colon) of 15.7 µM. For the same compound, the TGI (COLO 205 colon) was 67.9 µM, the GI50 (DU-145 prostate) was 13.3 µM and the TGI (DU-145 prostate) was > 100 µM. For the same compound, the GI50 (EKVX NSCLC) was 2.71 µM, the TGI (EKVX NSCLC) was > 100 µM and the GI50 (HCC-2998 colon) was 5.74 µM. For the same compound, the TGI (HCC-2998 colon) was 32.5 µM, the GI50 (HCT-116 colon) was 5.97 µM and the TGI (HCT-116 colon) was > 100 µM. For the same compound, the GI50 (HCT-15 colon) was 4.46 µM, the TGI (HCT-15 colon) was > 100 µM and the GI50 (HL-60(TB) leukemia) was 2.54 µM. For the same compound, the TGI (HL-60(TB) leukemia) was 28.3 µM, the GI50 (HOP-62 NSCLC) was 10.1 µM and the TGI (HOP-62 NSCLC) was > 100 µM. It also gave a GI50 (HOP-92 NSCLC) of 2.22 µM, a TGI (HOP-92 NSCLC) of 19.3 µM and a GI50 (HS 578T breast) of 6.91 µM. The TGI (HS 578T breast) was 68.2 µM, the GI50 (HT29 colon) was 8.77 µM and the TGI (HT29 colon) was > 100 µM. The GI50 (IGROV1 ovarian) was 0.634 µM, the TGI (IGROV1 ovarian) was 6.41 µM and the GI50 (K-562 leukemia) was 2.94 µM. For the same compound, the TGI (K-562 leukemia) was > 100 µM, the GI50 (KM12 colon) was 2.71 µM and the TGI (KM12 colon) was 24.7 µM. The GI50 (LOX IMVI melanoma) was 3.4 µM, the TGI (LOX IMVI melanoma) was 24.7 µM and the GI50 (M14 melanoma) was 7.27 µM. The TGI (M14 melanoma) was > 100 µM, the GI50 (MALME-3M melanoma) was 82.7 µM and the TGI (MALME-3M melanoma) was > 100 µM. The GI50 (MCF7 breast) was 1.7 µM, the TGI (MCF7 breast) was > 100 µM and the GI50 (MDA-MB-231 breast) was 1.93 µM. For the same compound, the TGI (MDA-MB-231 breast) was 8.71 µM, the GI50 (MDA-MB-435) was 6.73 µM and the TGI (MDA-MB-435) was > 100 µM. For the same compound, the GI50 (MDA-MB-468 breast) was 1.74 µM, the TGI (MDA-MB-468 breast) was 6.4 µM and the GI50 (MOLT-4 leukemia) was 2.85 µM. The TGI (MOLT-4 leukemia) was > 100 µM, the GI50 (NCI-H226 lung) was 2.02 µM and the TGI (NCI-H226 lung) was > 100 µM. The GI50 (NCI-H23 lung) was 11.6 µM, the TGI (NCI-H23 lung) was > 100 µM and the GI50 (NCI-H460 lung) was 7.68 µM. The TGI (NCI-H460 lung) was > 100 µM, the GI50 (NCI-H522 lung) was 3.11 µM and the TGI (NCI-H522 lung) was 33.5 µM. For the same compound, the GI50 (NCI/ADR-RES ovarian) was 5.33 µM, the TGI (NCI/ADR-RES ovarian) was > 100 µM and the GI50 (OVCAR-3 ovarian) was 11.6 µM. The TGI (OVCAR-3 ovarian) was > 100 µM, the GI50 (OVCAR-4 ovarian) was 43.2 µM and the TGI (OVCAR-4 ovarian) was > 100 µM. The GI50 (OVCAR-5 ovarian) was 4.17 µM, the TGI (OVCAR-5 ovarian) was 79.4 µM and the GI50 (OVCAR-8 ovarian) was 20.8 µM. The TGI (OVCAR-8 ovarian) was > 100 µM, the GI50 (PC-3 prostate) was 2.55 µM and the TGI (PC-3 prostate) was > 100 µM. For the same compound, the GI50 (RPMI-8226 leukemia) was 1.62 µM, the TGI (RPMI-8226 leukemia) was 9.07 µM and the GI50 (RXF 393 renal) was 2.09 µM. The TGI (RXF 393 renal) was 31.5 µM, the GI50 (SF-268 CNS) was 5.23 µM and the TGI (SF-268 CNS) was > 100 µM. It also gave a GI50 (SF-295 CNS) of 9.13 µM, a TGI (SF-295 CNS) of 48.4 µM and a GI50 (SF-539 CNS) of 2.65 µM. It also gave a TGI (SF-539 CNS) of 37.3 µM, a GI50 (SK-MEL-2 melanoma) of 21.4 µM and a TGI (SK-MEL-2 melanoma) of 81.8 µM. The GI50 (SK-MEL-28 melanoma) was 29.1 µM, the TGI (SK-MEL-28 melanoma) was > 100 µM and the GI50 (SK-MEL-5 melanoma) was 7.41 µM. For the same compound, the TGI (SK-MEL-5 melanoma) was 25.3 µM, the GI50 (SK-OV-3 ovarian) was 6.19 µM and the TGI (SK-OV-3 ovarian) was > 100 µM. It also gave a GI50 (SN12C renal) of 2.38 µM, a TGI (SN12C renal) of 65.9 µM and a GI50 (SNB-19 CNS) of 20.7 µM. The TGI (SNB-19 CNS) was > 100 µM, the GI50 (SNB-75 CNS) was 0.286 µM and the TGI (SNB-75 CNS) was 55.1 µM. It also gave a GI50 (SR leukemia) of 4.8 µM, a TGI (SR leukemia) of 58.3 µM and a GI50 (SW-620 colon) of 15.7 µM. For the same compound, the TGI (SW-620 colon) was > 100 µM, the GI50 (T-47D breast) was 3.22 µM and the TGI (T-47D breast) was > 100 µM. The GI50 (TK-10 renal) was 18.6 µM, the TGI (TK-10 renal) was > 100 µM and the GI50 (U251 CNS) was 15.9 µM. The TGI (U251 CNS) was > 100 µM, the GI50 (UACC-257 melanoma) was 25.1 µM and the TGI (UACC-257 melanoma) was > 100 µM. The GI50 (UACC-62 melanoma) was 8.45 µM, the TGI (UACC-62 melanoma) was > 100 µM and the GI50 (UO-31 renal) was 1.09 µM. The TGI (UO-31 renal) was > 100 µM.

From PubChem BioAssay (NCI)
